Measurements reported in ChEMBL document CHEMBL5726766, “Sulfonamide compounds as voltage-gated sodium channel modulators” (2019).

Assay: Membrane potential dye assay: HEK-293 cells overexpressing the channel of interest were seeded in a 96-well plate at a density of 30000 cells/well and incubated at 37° C./5% CO2 for 48 hr. The assay was carried out using the Red Membrane Potential Dye (Molecular Devices) following the manufacturer's instructions. Briefly, the cells were incubated with 1× red membrane potential dye for 1.5 hour. The cells were then treated with various concentrations of the test compounds for 15-20 min followed by depolarization with 10-30 μM Veratridine. The fluorescence was read following excitation at 510-545 nm and emission at 565-625 nm in FLIPR. The “max-min” fluorescence values were used to calculate the % inhibition.
Conditions: HEK293

Row | SMILES | IC50 [µM]
1 | O=S(=O)(Nc1ccncn1)c1ccc2c(c1)OCC[C@@H]2c1ccc(C(F)(F)F)cc1-c1ccc(F)cc1 | > 10
2 | O=S(=O)(Nc1cccc(F)n1)c1ccc2c(c1)OCC[C@@H]2c1ccc(C(F)(F)F)cc1-n1ccnn1 | > 10
3 | O=S(=O)(Nc1ncc(F)cn1)c1ccc2c(c1)OCC[C@@H]2c1ccc(C(F)(F)F)cc1-c1ccc(F)cc1 | > 10
4 | O=S(=O)(Nc1ncc(F)cn1)c1ccc2c(c1)OCC[C@@H]2c1ccc(C(F)(F)F)cc1-n1ccnn1 | > 10
5 | O=S(=O)(Nc1ccncn1)c1ccc2c(c1)OCC[C@@H]2c1ccc(C(F)(F)F)cc1-n1ccnn1 | > 10
6 | O=S(=O)(Nc1ncc(F)cn1)c1ccc2c(c1)OCC[C@@H]2c1ccc(C(F)(F)F)cc1-c1ccc(F)nc1 | > 10
7 | O=S1(=O)CCN(c2cc(C(F)(F)F)ccc2[C@H]2CCOc3cc(S(=O)(=O)Nc4ncccn4)ccc32)CC1 | > 10
8 | Cn1nccc1-c1cc(C(F)(F)F)ccc1[C@H]1CCOc2cc(S(=O)(=O)Nc3cnccn3)ccc21 | > 10
9 | Cn1nccc1-c1cc(C(F)(F)F)ccc1[C@H]1CCOc2cc(S(=O)(=O)Nc3ccncn3)ccc21 | > 10
10 | O=S(=O)(Nc1ncccn1)c1ccc2c(c1)OCC[C@@H]2c1ccc(C(F)(F)F)cc1-n1ccnn1 | > 10
11 | O=C(O)c1ccc(-c2cc(C(F)(F)F)ccc2[C@H]2CCOc3cc(S(=O)(=O)Nc4ncc(F)cn4)ccc32)cc1 | > 10
12 | Cn1nccc1-c1cc(C(F)(F)F)ccc1[C@H]1CCOc2cc(S(=O)(=O)Nc3cccnc3F)ccc21 | > 10
13 | O=S(=O)(Nc1cccc(F)n1)c1ccc2c(c1)OCC[C@H]2c1ccc(C(F)(F)F)cc1-c1ccc(F)cc1 | > 10
14 | CCOc1ccc(-c2cc(C(F)(F)F)ccc2[C@H]2CCOc3cc(S(=O)(=O)Nc4ncc(F)cn4)ccc32)cn1 | > 10
15 | CCCc1cc(C(F)(F)F)ccc1[C@@H]1CCOc2cc(S(=O)(=O)Nc3ncc(F)cn3)ccc21 | > 10
16 | O=S(=O)(Nc1ncccn1)c1ccc2c(c1)OCC[C@H]2c1ccc(C(F)(F)F)cc1-n1ccnn1 | > 10
17 | O=C1CCCN1c1cc(C(F)(F)F)ccc1[C@@H]1CCOc2cc(S(=O)(=O)Nc3ncc(F)cn3)ccc21 | > 10
18 | CC(C)Oc1cccc(NS(=O)(=O)c2ccc3c(c2)OCC[C@@H]3c2ccc(C(F)(F)F)cc2-c2ccnn2C)n1 | > 10
19 | O=S(=O)(Nc1ncccn1)c1ccc2c(c1)OCC[C@H]2c1ccc(C(F)(F)F)cc1N1CCOCC1 | > 10
20 | Cn1nccc1-c1cc(C(F)(F)F)ccc1[C@H]1CCOc2cc(S(=O)(=O)Nc3ncccc3F)ccc21 | > 10
21 | Cn1nccc1-c1cc(Cl)ccc1[C@@H]1CCOc2cc(S(=O)(=O)Nc3cccc(F)n3)ccc21 | > 10
22 | Cc1ccnc(NS(=O)(=O)c2ccc3c(c2)OCC[C@H]3c2ccc(C(F)(F)F)cc2-c2ccnn2C)n1 | > 10
23 | O=S(=O)(Nc1cccc(F)n1)c1ccc2c(c1)OCC[C@H]2c1ccc(C(F)(F)F)cc1-n1ccnn1 | > 10
24 | O=S(=O)(Nc1cccc(F)n1)c1ccc2c(c1)OCC[C@H]2c1ccc(C(F)(F)F)cc1-n1cccn1 | > 10
25 | O=S(=O)(Nc1ncc(F)cn1)c1ccc2c(c1)OCC[C@H]2c1ccc(C(F)(F)F)cc1-c1ccc(F)cc1 | > 10
26 | Cc1ccnc(NS(=O)(=O)c2ccc3c(c2)OCC[C@@H]3c2ccc(C(F)(F)F)cc2-c2ccnn2C)n1 | > 10
27 | Cn1nccc1-c1cc(Cl)ccc1[C@H]1CCOc2cc(S(=O)(=O)Nc3cccc(F)n3)ccc21 | > 10

Row | SMILES | IC50 [µM]
28 | O=C1COCCN1c1cc(C(F)(F)F)ccc1[C@H]1CCOc2cc(S(=O)(=O)Nc3ncccn3)ccc21 | > 10
29 | O=S(=O)(Nc1cccc(F)n1)c1ccc2c(c1)OCC[C@H]2c1ccc(C(F)(F)F)cc1OC1CCOCC1 | 3.65
30 | Cc1nc(-c2cc(C(F)(F)F)ccc2[C@@H]2CCOc3cc(S(=O)(=O)Nc4cccc(F)n4)ccc32)cs1 | > 10
31 | O=S(=O)(Nc1ccncn1)c1ccc2c(c1)OCC[C@H]2c1ccc(C(F)(F)F)cc1-n1ccnn1 | > 10
32 | COc1cc(C(F)(F)F)ccc1[C@@H]1CCOc2cc(S(=O)(=O)Nc3cccc(F)n3)ccc21 | > 10
33 | O=S(=O)(Nc1ncc(F)cn1)c1ccc2c(c1)OCC[C@H]2c1ccc(C(F)(F)F)cc1-n1ccnn1 | > 10
34 | CCCc1cc(C(F)(F)F)ccc1[C@H]1CCOc2cc(S(=O)(=O)Nc3ncc(F)cn3)ccc21 | > 10
35 | CS(=O)(=O)CCc1cc(C(F)(F)F)ccc1[C@@H]1CCOc2cc(S(=O)(=O)Nc3ccncn3)ccc21 | > 10
36 | O=S1(=O)CCN(c2cc(C(F)(F)F)ccc2[C@@H]2CCOc3cc(S(=O)(=O)Nc4ncccn4)ccc32)CC1 | > 10
37 | Cc1nc(-c2cc(C(F)(F)F)ccc2[C@@H]2CCOc3cc(S(=O)(=O)Nc4cccnn4)ccc32)co1 | > 10
38 | CC(C)Oc1ccc([C@@H]2CCOc3cc(S(=O)(=O)Nc4cccc(F)n4)ccc32)c(-c2ccnn2C)c1 | > 10
39 | O=S(=O)(Nc1ncccn1)c1ccc2c(c1)OCC[C@H]2c1ccc(C(F)(F)F)cc1OC1CCOCC1 | > 10
40 | CS(=O)(=O)CCc1cc(C(F)(F)F)ccc1[C@H]1CCOc2cc(S(=O)(=O)Nc3ncccn3)ccc21 | > 10
41 | CC(C)Oc1ccc(-c2cc(C(F)(F)F)ccc2[C@H]2CCOc3cc(S(=O)(=O)Nc4ncc(F)cn4)ccc32)cn1 | > 10
42 | O=S(=O)(Nc1ncccn1)c1ccc2c(c1)OCC[C@H]2c1ccc(C(F)(F)F)cc1-c1ccc(F)cn1 | > 10
43 | O=S(=O)(Nc1ncccn1)c1ccc2c(c1)OCC[C@H]2c1ccc(C(F)(F)F)cc1C1CCOCC1 | > 10
44 | Cc1nc(-c2cc(C(F)(F)F)ccc2[C@@H]2CCOc3cc(S(=O)(=O)Nc4ccncn4)ccc32)cs1 | > 10
45 | Cc1nc(-c2cc(C(F)(F)F)ccc2[C@H]2CCOc3cc(S(=O)(=O)Nc4cccnn4)ccc32)cs1 | > 10
46 | O=S(=O)(Nc1ncc(F)cn1)c1ccc2c(c1)OCC[C@H]2c1ccc(C(F)(F)F)cc1-c1ccc(F)nc1 | > 10
47 | CS(=O)(=O)CCc1cc(C(F)(F)F)ccc1[C@H]1CCOc2cc(S(=O)(=O)Nc3cccc(F)n3)ccc21 | > 10
48 | COCCCc1cc(C(F)(F)F)ccc1[C@@H]1CCOc2cc(S(=O)(=O)Nc3ncccn3)ccc21 | > 10
49 | Cn1nccc1-c1cc(C(F)(F)F)ccc1[C@@H]1CCOc2cc(S(=O)(=O)Nc3cnccn3)ccc21 | > 10
50 | O=S(=O)(Nc1cccnn1)c1ccc2c(c1)OCC[C@@H]2c1ccc(C(F)(F)F)cc1-n1ccnn1 | > 10
51 | O=S(=O)(Nc1cccnn1)c1ccc2c(c1)OCC[C@H]2c1ccc(C(F)(F)F)cc1OC1CCOCC1 | > 10
52 | COCCCOc1cc(C(F)(F)F)ccc1[C@@H]1CCOc2cc(S(=O)(=O)Nc3ncccn3)ccc21 | > 10
53 | COCCCCc1cc(C(F)(F)F)ccc1[C@@H]1CCOc2cc(S(=O)(=O)Nc3ncccn3)ccc21 | > 10
54 | Cc1nc(-c2cc(C(F)(F)F)ccc2[C@@H]2CCOc3cc(S(=O)(=O)Nc4ncccn4)ccc32)cs1 | > 10

Row | SMILES | IC50 [µM]
55 | CCCc1cc(C(F)(F)F)ccc1[C@@H]1CCOc2cc(S(=O)(=O)Nc3ncccn3)ccc21 | > 10
56 | Cc1nc(-c2cc(C(F)(F)F)ccc2[C@H]2CCOc3cc(S(=O)(=O)Nc4ncccn4)ccc32)cs1 | > 10
57 | O=C1COCCN1c1cc(C(F)(F)F)ccc1[C@@H]1CCOc2cc(S(=O)(=O)Nc3ncccn3)ccc21 | > 10
58 | O=S(=O)(Nc1ccncn1)c1ccc2c(c1)OCC[C@H]2c1ccc(C(F)(F)F)cc1OC1CCOCC1 | > 10
59 | Cn1nccc1-c1cc(C(F)(F)F)ccc1[C@@H]1CCOc2cc(S(=O)(=O)Nc3cccnc3F)ccc21 | > 10
60 | O=C(O)c1ccc(-c2cc(C(F)(F)F)ccc2[C@@H]2CCOc3cc(S(=O)(=O)Nc4ncc(F)cn4)ccc32)cc1 | > 10
61 | O=S(=O)(Nc1cccnn1)c1ccc2c(c1)OCC[C@@H]2c1ccc(C(F)(F)F)cc1-c1ccc(F)cn1 | > 10
62 | O=S(=O)(Nc1cccnn1)c1ccc2c(c1)OCC[C@H]2c1ccc(C(F)(F)F)cc1-c1ccc(F)nc1 | > 10
63 | O=S(=O)(Nc1cccnn1)c1ccc2c(c1)OCC[C@H]2c1ccc(C(F)(F)F)cc1-c1ccc(F)cn1 | > 10
64 | CS(=O)(=O)CCc1cc(C(F)(F)F)ccc1[C@@H]1CCOc2cc(S(=O)(=O)Nc3ncc(F)cn3)ccc21 | > 10
65 | CC(C)Oc1cccc(NS(=O)(=O)c2ccc3c(c2)OCC[C@H]3c2ccc(C(F)(F)F)cc2-c2ccnn2C)n1 | > 10
66 | Cn1nccc1-c1cc(C(F)(F)F)ccc1[C@@H]1CCOc2cc(S(=O)(=O)Nc3ncccc3F)ccc21 | > 10
67 | O=S(=O)(Nc1ccncn1)c1ccc2c(c1)OCC[C@H]2c1ccc(C(F)(F)F)cc1-c1ccc(F)cc1 | > 10
68 | COc1cc(C(F)(F)F)ccc1[C@H]1CCOc2cc(S(=O)(=O)Nc3ncccn3)ccc21 | > 10
69 | O=C1CCCN1c1cc(C(F)(F)F)ccc1[C@H]1CCOc2cc(S(=O)(=O)Nc3ncc(F)cn3)ccc21 | > 10
70 | Cc1cccc(NS(=O)(=O)c2ccc3c(c2)OCC[C@H]3c2ccc(C(F)(F)F)cc2-c2ccnn2C)n1 | > 10
71 | O=S(=O)(Nc1ncccn1)c1ccc2c(c1)OCC[C@H]2c1ccc(C(F)(F)F)cc1OC1COC1 | > 10
72 | CS(=O)(=O)CCc1cc(C(F)(F)F)ccc1[C@@H]1CCOc2cc(S(=O)(=O)Nc3ncccn3)ccc21 | > 10
73 | O=C(O)c1ccc(-c2cc(C(F)(F)F)ccc2[C@H]2CCOc3cc(S(=O)(=O)Nc4ncccn4)ccc32)cc1 | > 10
74 | CS(=O)(=O)CCc1cc(C(F)(F)F)ccc1[C@H]1CCOc2cc(S(=O)(=O)Nc3ncc(F)cn3)ccc21 | > 10
75 | O=S(=O)(Nc1ncc(F)cn1)c1ccc2c(c1)OCC[C@H]2c1ccc(C(F)(F)F)cc1OC1CCOCC1 | > 10
76 | Cn1nccc1-c1cc(C(F)(F)F)ccc1[C@@H]1CCOc2cc(S(=O)(=O)Nc3cc(F)ccn3)ccc21 | > 10
77 | O=S(=O)(Nc1cccc(F)n1)c1ccc2c(c1)OCC[C@@H]2c1ccc(C(F)(F)F)cc1-n1cccn1 | > 10
78 | Cn1nccc1-c1cc(C(F)(F)F)ccc1[C@@H]1CCOc2cc(S(=O)(=O)Nc3ccncn3)ccc21 | > 10
79 | CS(=O)(=O)CCc1cc(C(F)(F)F)ccc1[C@H]1CCOc2cc(S(=O)(=O)Nc3ccncn3)ccc21 | > 10
80 | CC(C)Oc1ccc([C@H]2CCOc3cc(S(=O)(=O)Nc4cccc(F)n4)ccc32)c(-c2ccnn2C)c1 | > 10
